# Measurements: patent US4939156A (priority 1987, dated 1990)
# Key:
# [1] = tested on: Newcastle disease virus (NDV) Miyadera strain; test: microbe, parasite or virus in culture; assay type: cell-based
# [2] = tested on: Herpes simplex virus (HSV) Type 2 196 strain; test: Antiviral activity, Virus No. 5 infested Vero cell; assay type: cell-based
# [3] = tested on: human premyelocytic leukemia cells (HL-60); test: NBT-reducing ability (differentiation) of HL-60 cells after treatment with test compound; assay type: cell-based; conditions: 0.1% NBT, 37° C., 20 minutes
# Method: (§1) The human premyelocytic elukemia cells (HL-60 cell) are characterized by the ability to respond to pharmacological inducers of differentiation and can produce the normal granulocytes when they have been differentiated, as described in the "Blood" Vol. 54, No. 3, 713-733 (1979).
# (§2) Thus, firstly the cell differentiation-inducing activity of the compound was assayed by the following procedure described in said "Blood". Namely, HL-60 cells were incubated by passing successively through RPMI 1640 media supplemented with 10% FCS (fetal calf serum), followed by adding the test compound at varying concentrations to aliquots of the culture of the HL-60 cells at the logarithmic phase of growth. The HL-60 cells thus incubated were further incubated in the presence of the test compound for 6 days and subsequently fixed to slide glasses. The fixed HL-60 cells were stained with May-Gruenwald-Giemsa's reagent and the morphology of the nuclei in the stained cells was examined to judge which of the cells has been differentiated into the normal granulocytes. Then, the number of the HL-60 cells which had propagated were counted.
# Secondly, the another aliquot of the culture of the HL-60 cells which were incubated in the above procedure in the presence of the test compound at its evaluated "IC50 " concentration was centrifuged to collect the cells, which were then diluted with a volume of RPMI 1640 medium supplemented with 10% FCS, to provide a given concentration of the cells. Subsequently, the cells which were diluted with said medium were added and mixed with 0.1% of NBT and then incubated at 37° C. for 20 minutes. The number of the cells which stained black color owing to the involved reduction of NBT and which could be judged to have the ability to reduce NBT was counted.
# [4] = tested on: Influenza virus A/PR/8/34 strain; test: Antiviral activity, Virus No. 1 infested MDCK cell; assay type: cell-based
# in vitro [5] = conditions: dog, mdck
# [6] = tested on: vesicular stomatitis virus (VSV) New Jersey strain; test: microbe, parasite or virus in culture; assay type: cell-based
# in vitro [7] = conditions: mouse, l-929 cells
# in vitro [8] = conditions: human, hela-y cells
# [9] = tested on: human premyelocytic leukemia cells (HL-60); test: 50% inhibition of propagation of undifferentiated human premyelocytic leukemia HL-60 cells; assay type: cell-based; conditions: 144 h, 6 days incubation, read-out: Activity of test compound to inhibit by 50% the undifferentiated propagation of HL-60 cells (IC50)
# Method: as §1, §2
# As said "IC50 " concentration of the test compound was assumed such concentration of the test compound at which the counted number of the HL-60 cells having propagated was reduced by 50%, as compared to that counted in the control tests where the test compound was not used.
# [10] = tested on: Vaccinia virus Lister strain; test: organism not typed; assay type: cell-based
# mice = test: Acute toxicity in mice given i.p.; assay type: in vivo; conditions: twice a day, 4 days, counted at 5th day
# Method: For estimation of toxicity of the new compounds of this invention for mammalian animals, acute toxicity of the TI-27 Substance of Example 1 as a representative example was tested by intraperitoneal administration of a suspension of 25 mg/ml of TI-27 substance in a 0.5% aqueous solution of carboxymethyl cellulose (CMC) to mice (five in each group). The TI-27 substance was given to mice twice a day at a unit dosage of 5 mg, 1.25 mg, 0.313 mg, 0.078 mg or 0.02 mg per mouse for consecutive 4 days, totally 8 times. The number of the surviving mice which tolerated the administration of TI-27 Substance was counted at the 5th day of the tests.
# in vitro [11] = conditions: monkey, vero cells
smiles,measurement,setting,value
"CN1C(=O)[C@@H]2[C@H](N(C)C1=O)C(C)(C)C2(C)C (relative stereo) [TI-27 Substance, 2,4,7,7,8,8-hexamethyl-cis-2,4-diaza-bicyclo{4.2.0}octane-3,5-dione]",IC50,"[1]; avian paramyxovirus 1, 48 h, read-out: Inhibitory Concentration (IC50) which inhibited by 50% the denaturation of Virus No. 2 infested HeLa-Y cell",> 250 µg/mL
same,"Quotient of minimum denaturation concentration divided by IC50, Virus No. 2","[1]; figures in brackets, HeLa-Y cell, NDV, 2880 min",< 1.0
same,IC50,"[2]; 48 h, HSV Type 2, Vero cell, […], read-out: Inhibitory Concentration (IC50) which inhibited by 50% the denaturation of Virus No. 5 infested Vello cell",> 500 µg/mL
same,"Quotient of minimum denaturation concentration divided by IC50, Virus No. 5","[2]; figures in brackets, Vero cell, HSV Type 2",< 1.0
same,Percent of the number of the cells showing the NBT-reducing ability after treatment with test compound at IC50 concentration,[3],51%
same,IC50,"[4]; PR/8, MDCK, 48 h, read-out: Inhibitory Concentration (IC50) which inhibited by 50% the denaturation of Virus No. 1 infested MDCK cell",188 µg/mL
same,"Quotient of minimum denaturation concentration divided by IC50, Virus No. 1","[4]; figures in brackets, MDCK cell, Influenza virus, 2880 min",5.32
same,MCC at 48 h,in vitro [5],1000 µg/mL
same,IC50,"[6]; Vesicular stomatitis virus, L929, 48 h, read-out: Inhibitory Concentration (IC50) which inhibited by 50% the denaturation of Virus No. 3 infested L-929 cell",> 500 µg/mL
same,"Quotient of minimum denaturation concentration divided by IC50, Virus No. 3","[6]; figures in brackets, L-929 cell, VSV, 2880 min",< 1.0
same,MCC at 48 h,in vitro [7],250 µg/mL
same,MCC at 48 h,in vitro [8],250 µg/mL
same,IC50,[9],35 µg/mL
same,IC50,"[10]; 48 h, read-out: Inhibitory Concentration (IC50) which inhibited by 50% the denaturation of Virus No. 4 infested HeLa-Y cell",> 250 µg/mL
same,"Quotient of minimum denaturation concentration divided by IC50, Virus No. 4","[10]; figures in brackets, HeLa-Y cell, Vaccinia virus, 2880 min",< 1.0
same,Number of surviving mice/number of mice tested,mice; 0.02 mg/mouse i.p.,5/5
same,Number of surviving mice/number of mice tested,mice; 0.078 mg/mouse i.p.,5/5
same,Number of surviving mice/number of mice tested,mice; 0.313 mg/mouse i.p.,5/5
same,Number of surviving mice/number of mice tested,mice; 1.25 mg/mouse i.p.,1/5
same,Number of surviving mice/number of mice tested,mice; 5 mg/mouse i.p.,0/5
same,MCC at 48 h,in vitro [11],500 µg/mL
